Columns and labels:
[1] = daily doses higher than 1 mg/day; cited from earlier work
[2] = Cholecalciferol dosing, calciuria and hypercalcemia in renal patients; type: in vivo, human
Text: The inventor has discovered that these therapeutic approaches are obsolete today because of the risk of prolonged hypercalcemia resulting from the long half-life of 25-(OH)-D3 in renal patients. […] Likewise, the inventor has discovered that repletion of vitamin D to achieve a plasma 25-(OH)-D concentration in the 80th percentile or higher of normal clinical values prevents renal osteodystrophy, Looser zones, and sub-periosteal resorption, despite the persistence of hypocalcemia, hyperphosphatemia and metabolic acidosis, or the use of calcium-aluminum free phosphate binders such as sevelamer salts. Therefore, a composition of the invention comprises 375 to 425 IU of vitamin D and a preferred embodiment of a composition of the invention provides 400 IU of vitamin D.

[3] = cited from earlier work
[4] = 43 maintenance hemodialysis patients, low flux/low efficiency dialyzers; 200 mg post-dialysis 2-3 times per week (400-600 mg weekly) orally; cited from earlier work
[5] = up to 200 mg/day; cited from earlier work
[6] = blood flow of 200-300 mL/min; cited from earlier work
[7] = daily oral 25 mg elemental zinc, 6 months; from 81±8 mcg/dL; normal controls 111±10 μg/dL; p<0.005; cited from earlier work
[8] = in vivo; cited from earlier work
[9] = 400 μg/L in dialysate, 6 months; cited from earlier work
[10] = zinc supplementation, dialysis patients; cited from earlier work
[11] = cited from earlier work; remark: listed apart in the source
[12] = 15 days of treatment with 300 mg/day; hemodialysis patients; cited from earlier work
[13] = single oral dose of 1200 IU; cited from earlier work
[14] = Daily vitamin K over several years in the general population; type: in vivo, human; conditions: 1 mg dose each day over several years
Text: The inventor has discovered that the 10 mcg dose of vitamin K that is provided in conventional multivitamin preparations is too low. […] A composition of their invention comprises vitamin K in doses that are appropriate for subjects with renal disease and provides 25 to 1000 mcg of vitamin K, and a preferred embodiment of a composition of the invention provides 50 mcg of vitamin K.

Nc1nc2ncc(CNc3ccc(C(=O)N[C@@H](CCC(=O)O)C(=O)O)cc3)nc2c(=O)[nH]1 [Folic acid]
renal patients in whom plasma homocysteine levels are lowered [1]: up to 30%

C=C1CC[C@H](O)C/C1=C/C=C1\CCC[C@]2(C)[C@@H]([C@H](C)CCCC(C)C)CC[C@@H]12 [cholecalciferol]
calciuria and hypercalcemia ([2]; dose of 800 IU or 20 mcg, pre-dialysis patients): does not cause an increase in calciuria in pre-dialysis patients nor hypercalcemia | calciuria and hypercalcemia ([2]; doses in excess of 2400 IU or 60 mcg/day): these complications are seen

[Se] [selenium]
APACHE III score versus untreated group ([3]; SIRS patients): significantly lower | time to normalization of serum selenium levels and GSH-Px activity ([3]; Se treated SIRS patients): ≤ 3 days | overall mortality ([3]; Se+ group, 52% in the Se− group): 33.5%

O=C1O[C@H]([C@@H](O)CO)C(O)=C1O [vitamin C, ascorbic acid]
patients with decreased plasma vitamin C levels / serum levels not maintained despite supplement [4]: 27% | bioavailability [5]: ~100% | clearance of vitamin C (ascorbate) during hemodialysis [6]: about 100 mL/min

[Zn] [zinc]
plasma Zn levels after treatment [7]: 110 ± 14 µg/dL | plasma level at which zinc toxicity is seen [8]: around 700 mcg/dL | intracellular content of ATP in lymphocytes [9]: increased intracellular content of ATP in lymphocytes | serum zinc level [9]: significant increase in serum zinc level | patients with plasma testosterone levels increased into the normal range [10]: 50%

Fe(III) hydroxide sucrose complex
hemodialysis patients with bleomycin-detectable free iron in the circulation ([11]; 100 mg intravenously): 8 of the 10 | plasma total peroxide and malondialdehyde concentrations ([11]; within ten minutes following infusion of 100 mg): rise in plasma total peroxide and malondialdehyde concentrations

vitamin E
platelet vitamin E levels [12]: increased to the normal range | oxidative stress induced by intravenous iron [13]: effective in attenuating the oxidative stress

vitamin K
untoward effects [14]: no untoward effects

Reference: patent US8911798B2, “Multivitamin and mineral compositions for individuals having renal disease” (priority 2007, dated 2014)
